Assay results: patent US8426623B2, “Surface modified nanoparticle and preparation method thereof” (National Tsing Hua University, priority 2010, dated 2013)

Assay: Anti-oxidative activity of phenol compound (H2O2 scavenging)
Conditions: substance/H2O2=1, reacted with H2O2 before H2O2 was measured; versus unreacted H2O2 control; FIG. 1
Method: H2O2 was the tested ROS in testing anti-oxidative activity of HPPDA. There are 3 sets in this experiment, including H2O2, HPPDA/H2O2 and ascorbic acid/H2O2, where HPPDA/H2O2=1, ascorbic acid/H2O2=1, and HPPDA, ascorbic were respectively reacted with H2O2 before H2O2 was measured. The control is represented with H2O2 without undergoing any reaction.
Referring to FIG. 1, as the comparison result with control has shown, the concentration of H2O2 was lowered after reacted with ascorbic acid and HPPDA (# for significant difference, p<0.01). Particularly, H2O2 concentration was lowered by ascorbic acid with 30 μM and lowered by HPPDA with 40 μM; this means better H2O2 absorption by HPPDA than ascorbic acid.

| SMILES | H2O2 concentration lowered by |
| --- | --- |
| O=C(O)/C=C/C=C/c1ccc(O)cc1 [HPPDA, (2E,4E)-5-(4-hydroxyphenyl)penta-2,4-dienoic acid] | 40 µM |
| O=C1O[C@H]([C@@H](O)CO)C(O)=C1O [ascorbic acid] | 30 µM |
